Measurements taken from patent publication US12678416B2, “L-triiodothyronine (T3) for use in limiting microvascular obstruction” (UNI-PHARMA KLEON TSETIS PHARMACEUTICAL LABORATORIES S.A., priority 2019, dated 2026).
“Also recorded” adds a separate entry of the source.

Legend:
[1] = Thy-REPAIR phase II study: T3 levels in serum during hospitalization; format: in vivo, patients
Experimental: (§1) The potential effect of early administration of high dose TH (acute treatment) after an index event has been also investigated in experimental models of ischemia-reperfusion (I/R) using isolated rat heart preparations. […] Thy-REPAIR explores the effects of high-dose T3 treatment intravenously starting immediately after reperfusion and continuing for 48 hours in patients with anterior or anterolateral STEMI undergoing primary PCI. This is a double-blind randomized trial. The primary end point of this study is recovery of myocardial function after 6 months of the index event as this is assessed by Cardiac Magnetic Resonance (CMR) at discharge and at 6 months after acute myocardial infarction. This study also explores the potential effects of T3 treatment on infarct size and cardiac remodeling by assessing changes in LV volumes and geometry.
(§2) The dose administered is 0.8 μg/kg intravenously bolus starting immediately after successful opening of the culprit vessel has been established in the hemodynamic lab and followed by an infusion of 0.113 μg/kg/h intravenously for 48 hours.

STEMI patients [2] = experiment: Thy-REPAIR: heart rate during hospitalization; format: in vivo; details: during the first 3 days, high dose T3 vs placebo
Experimental: as §1, §2
Despite the possible increase in oxygen consumption, no increase in infarct size (IS) is found with T3 in contrast to the current belief (FIG. 3).

[3] = system: STEMI patients after PPCI; experiment: Thy-REPAIR: contrast-enhanced cardiac magnetic resonance (MVO, infarct size, LV function); format: in vivo
Experimental: as §1
(§3) The invention in particular concerns L-triiodothyronine for use in the treatment as set forth in the appending claims. In the broader sense, the present invention concerns L-triiodothyronine for use in the treatment of microvascular obstruction. Treatment of MVO in this context relates to the lessening of microvascular obstruction in comparison to patients which were not supplied with T3. MVO may be determined on the basis of both Cardiac Magnetic Resonance (CMR) imaging, being performed 7-12 days following primary percutaneous coronary intervention (PPCI) and restoration of ST elevation in electrocardiogram (ECG). Infarct size and ejection fraction was measured by CMR. Infarct size was also assessed enzymatically by measuring levels of troponin in blood.
as §2
Actually, cardiac magnetic resonance with gadolinium represents the gold-standard method for detection of MVO in patients with STEMI. MVO can be quantified in each patient as the percentage of left ventricular (LV) myocardium that is not adequately perfused despite restoration of blood flow in the occluded large coronary artery.
The incidence of MVO was assessed using the value of 0.47% as a cut-off point for patients with large and small extent of MVO as previously described. This analysis was additionally performed and provides a strong evidence about the T3 effect on MVO. In the placebo group (n=9), a large extent of MVO was found in 56% of patients consistent with previous published reports in the literature.

[4] = system: STEMI patients after PPCI; experiment: Thy-REPAIR: ST resolution in electrocardiograms on admission and after PPCI; format: in vivo; details: placebo 34%, p=0.05
Source text: as §3, §2
These unexpected findings concerning MVO were also supported by other measurements. Changes in ST elevation in electrocardiograms before and after PPCI measured as ST restoration (%) are closely correlated with the extent of MVO (FIG. 6).

STEMI patients [5] = experiment: Thy-REPAIR: troponin levels in blood over time; format: in vivo; details: T3 vs placebo groups
Source text: as §3, §2
Troponin levels in blood over time are mainly a measure of myocardial injury. According to the present invention, troponin levels are similar between T3 and placebo groups indicating a similar infarct size in accordance with CMR data. Thus, it seems that the effect of T3 on MVO is independent from infarct size. (FIG. 8).

STEMI patients [6] = experiment: Thy-REPAIR: left ventricular ejection fraction by echocardiography; format: in vivo; details: early and late after the index event, T3 vs placebo
Experimental: FIG. 12: Left ventricular ejection fraction assessed by echocardiography at different time points in STEMI patients treated with placebo and T3
as §2

[7] = system: patients with STEMI and low serum FT3 levels; details: oral T3 for 6 months, cited from earlier work
isolated rat heart = details: ex vivo, cited from earlier work; for myocardial injury as indicated by apoptosis: at the onset of reperfusion
[8] = system: reperfused STEMI patients; details: high-dose intracoronary, cohort of 247 reperfused STEMI patients; cited from earlier work
[9] = system: patients after acute myocardial infarction; details: long-term administration of high doses; cited from earlier work

N[C@@H](Cc1cc(I)c(Oc2ccc(O)c(I)c2)c(I)c1)C(=O)O [T3, L-triiodothyronine]
T3 levels in serum relative to normal range ([1]; at discharge (7th day)): return to normal | T3 levels in serum relative to normal range ([1]; for 72 hours): far above normal range | concentration at 24 h ([1]; human, serum, at 24 hours, 0.8 μg/kg iv bolus then 0.113 μg/kg/h iv for 48 hours, placebo 0.79 (0.06), p<0.01): 5.5 ng/mL | concentration at 48 h ([1]; human, serum, at 48 hours, 0.8 μg/kg iv bolus then 0.113 μg/kg/h iv for 48 hours, placebo 0.76 (0.06), p<0.01): 4.5 ng/mL | heart rate (STEMI patients [2]): non-significant increase | extent of mean microvascular obstruction ([3]; CMR at discharge (7-12 days after the event), T3 vs placebo): less | infarct size (IS) by CMR ([3]; T3 vs placebo, at discharge): no increase; also recorded: similar | cardiac function by CMR ([3]; at 6 months, T3 vs placebo): improvement | cardiac function ([3]; at discharge and at 6 months): improved | myocardial function (EF %, LVEDVi and end-systolic volumes by CMR) ([3]; at discharge, T3 vs placebo): improved | recovery of function (ejection fraction at 6 months) versus myocardial injury (infarct size by CMR) ([3]; correlation in T3 group): independent | patients with a large extent of MVO ([3]; cut-off 0.47%, T3 group n=12, placebo (n=9) 56%, p=0.05): 25% | mean ST resolution after PPCI [4]: 54% | troponin levels in blood over time (STEMI patients [5]): similar | LV ejection fraction by echocardiography (STEMI patients [6]): improvement | regional cardiac dysfunction ([7]; commenced 72 h after onset of STEMI, max 15 μg/m^2/day, 37 patients): effective in reducing | safety of T3 replacement therapy ([7]; commenced 72 h after onset of STEMI): safe | left ventricular ejection fraction and myocardial infarct size by cardiac MRI [7]: did not show any benefit | myocardial injury as indicated by apoptosis (isolated rat heart): less | post-ischemic recovery of function (isolated rat heart; high dose at the onset of reperfusion): enhanced

Nc1ncnc2c1ncn2[C@@H]1O[C@H](CO)[C@@H](O)[C@H]1O [adenosine]
MVO and MI size [8]: failed to reduce

N[C@H](Cc1cc(I)c(Oc2cc(I)c(O)c(I)c2)c(I)c1)C(=O)O [D-thyroxine]
mortality [9]: increased

N[C@@H](Cc1cc(I)c(Oc2cc(I)c(O)c(I)c2)c(I)c1)C(=O)O [T4, L-thyroxine]
myocardial injury as indicated by apoptosis (isolated rat heart): no effect
